Assay: xn = mol fraction of the nth substance listed
Details: 101.3 kPa

CCCC[NH3+].O=[N+]([O-])[O-] + O
x2 = 0.435
Details	viscosity [mPa·s]
283.15 K	43.41
288.15 K	35.87
293.15 K	29.92
303.15 K	21.45
308.15 K	18.52
313.15 K	16.04
318.15 K	14.65
323.15 K	12.38
328.15 K	11.26
333.15 K	9.535
338.15 K	8.605
343.15 K	7.11
348.15 K	6.46
353.15 K	5.89
358.15 K	5.4
363.15 K	4.98
368.15 K	4.6
373.15 K	4.266

CC[NH3+].O=[N+]([O-])[O-] + O
x2 = 0.574
Details	viscosity [mPa·s]
283.15 K	8.965
288.15 K	6.679
293.15 K	6.018
298.15 K	5.487
313.15 K	4.258
318.15 K	3.893
323.15 K	3.622
333.15 K	3.173
338.15 K	3.007
348.15 K	1.807
353.15 K	1.695
358.15 K	1.589
363.15 K	1.492
368.15 K	1.434
373.15 K	1.343

Reference: a compilation of properties of binary mixtures (doi:10.1007/s10973-023-12194-1)
